According to PubChem BioAssay AID1996:
In brackets after ≈: the same amount, converted by molar mass.

Conditions: buffer; pH 7.4; 200.0 µM

| Structure (SMILES) | solubility kinetic [µg/mL] |
| --- | --- |
| O=C(NCCc1ccccn1)c1cc2ccccc2o1 | 37.7 (≈ 142 µM) |
| CC(=O)Nc1ccc(Oc2ccc(NC(C)=O)c(NC(C)=O)c2)cc1 | > 51.2 |
| O=C(CCl)c1ccc2[nH]c(=O)oc2c1 | > 31.7 |
| CCCCCCCc1c(O)nc(SCC(=O)O)[nH]c1=O | 43.9 (≈ 146 µM) |
| CC(OC(=O)CN1C(=O)C2C3C=CC(C4CC34)C2C1=O)C(=O)c1ccccc1 (stereo unspecified) | > 56.9 |
| COc1cc(OC)cc(/C(N)=N/O)c1 | 26.9 (≈ 137 µM) |
| CCN(CC)CC(=O)N1c2ccccc2Sc2ccccc21 | > 46.9 |
| CCc1ccc(C(=O)Nc2cc(C)ccc2F)s1 | 16.6 (≈ 63 µM) |
| O=C(COc1ccccc1Cl)Nc1nc(-c2ccncc2)cs1 | 11.4 (≈ 33 µM) |
| COC(=O)c1c(NC(=O)C(Cl)Cl)sc2c1C(C(=O)OC)CC2 (stereo unspecified) | 8.6 (≈ 23.5 µM) |
| CC(C)Oc1ccc(C(=O)NCCNC(=O)c2ccco2)cc1 | > 47.5 |
| Cc1ccc(C(=O)O/N=C(\N)Cc2cccc3ccccc23)cc1 | 0.5 (≈ 1.57 µM) |
| COc1ccc(NC(=O)CCCOc2ccc(Cl)c(C)c2)cc1S(=O)(=O)N1CCOCC1 | 15.3 (≈ 31.7 µM) |
| CCN1C(=O)c2cccc3c(N)ccc(c23)C1=O | 7.5 (≈ 31.2 µM) |
| CCc1cccc(NS(=O)(=O)c2c(C)[nH]c(=O)[nH]c2=O)c1 | > 46.4 |
| CC(OC(=O)/C=C/c1cccc(F)c1)C(=O)NC1CCCCC1C (stereo unspecified) | 1.9 (≈ 5.7 µM) |
| CS(=O)(=O)N1CCC(CO)(Cc2ccccc2C(F)(F)F)CC1 | 48.7 (≈ 139 µM) |
| COc1ccc(NC(=O)COc2ccccc2)cc1NC(=O)c1ccco1 | 1.2 (≈ 3.28 µM) |
| COc1cc(/C=C/C(=O)OCC(=O)NCCC2=CCCCC2)cc(OC)c1OC | 33.3 (≈ 82.5 µM) |
| COc1ccc(N(Cc2cc3ccc(C)cc3[nH]c2=O)C(=O)C2CCCO2)cc1 (stereo unspecified) | 10.1 (≈ 25.7 µM) |
| COc1ccccc1C(=O)Nc1sc2c(c1C#N)CCC2 | 0.5 (≈ 1.68 µM) |
| CC(=O)N(OCc1ccc(OC(C)C)c(Cl)c1)C(C)=O | 38.1 (≈ 127 µM) |

| Structure (SMILES) | solubility kinetic [µg/mL] |
| --- | --- |
| C=CCNS(=O)(=O)c1cc2c3c(c1)CCN3C(=O)CC2 | > 43.9 |
| Cl.O[C@@H](c1cc(C(F)(F)F)nc2c(C(F)(F)F)cccc12)[C@H]1CCCCN1 | > 62.2 |
| CCN(C(=O)COC(=O)c1ccccc1OCc1ccc(Cl)cc1)C1CCS(=O)(=O)C1 (stereo unspecified) | 25 (≈ 53.7 µM) |
| O=C(COc1ccccc1)Nc1ccncc1 | > 34.2 |
| CN(C)CCCN=C(NO)c1ccc(Cl)cc1Cl | 40.5 (≈ 140 µM) |
| COc1ccc(C(=O)O)c(OC)n1 | > 27.5 |
| O=C(COC(=O)c1ccc(Cl)nc1)Nc1ccc2c(c1)CCC2 | 5.3 (≈ 16 µM) |
| COc1ccccc1CNC(=O)CN(C)CC(=O)Nc1ccccc1Br | > 63 |
| C=CCn1c(-c2ccccc2)nc(=S)c2c1CCCC2 | > 42.4 |
| C=CCn1c(O)c(/C=N/N2CCCCC2)c(=O)[nH]c1=O | > 41.7 |
| COC(=O)c1ccccc1NCC(=O)c1ccc(OC)cc1 | 11.2 (≈ 37.4 µM) |
| COCc1cc(=O)[nH]c(/N=C(\N)Nc2c(F)cccc2F)n1 | 40.6 (≈ 131 µM) |
| Cc1ccc(C(=O)NCC(=O)N2CCN(c3cccc(Cl)c3)CC2)s1 | 2.8 (≈ 7.41 µM) |
| Cc1ccc(/C=C2\C(=O)NC(=O)N2C)o1 | 21.4 (≈ 104 µM) |
| Cc1sc2nc(CC(=O)N3CCCC3)[nH]c(=O)c2c1C | > 43.7 |
| Cc1cc(Cl)c2ccc3ccccc3c2n1 | < 0.5 |
| COCCNC(=O)Cn1cc(C(=O)c2ccco2)c2ccccc21 | > 49 |
| Cc1cc(C)cc(C(=O)NCC(=O)OCC(=O)N2CCCCC2)c1 | 49.3 (≈ 148 µM) |
| CCN(C(=O)CSc1cccc[n+]1[O-])C1CCCCC1 | > 44.2 |
| CCCn1c(N)c(CC)c(=O)[nH]c1=O | > 29.6 |
| O=C(O)c1ccc(-c2ccccc2)[nH]c1=O | > 32.3 |
| Cc1ccc(C(=O)Nc2ccccc2N2CCCC2)s1 | > 43 |

| Structure (SMILES) | solubility kinetic [µg/mL] |
| --- | --- |
| Cc1ccc(SCC(=O)NCC2CCCO2)cc1 (stereo unspecified) | > 39.8 |
| O=S(=O)(NC1CCCCC1)c1cccs1 | 28.7 (≈ 117 µM) |
| CCCN(CC1CC1)C(=S)Nc1ccc(C(C)=O)cc1 | > 43.6 |
| S=C(Nc1ccccc1)Nc1ccc(Cl)cn1 | 2.1 (≈ 7.96 µM) |
| CCCN1CCC(NC2CCC(O)CC2)CC1 (stereo unspecified) | 27.1 (≈ 113 µM) |
| O=C(CN1CCCCCC1)Nc1ccc(S(=O)(=O)N2CCCCC2)cc1 | 50.4 (≈ 133 µM) |
| O=C(CN1CCCCCC1)Nc1ccc([N+](=O)[O-])cc1Cl | 1.1 (≈ 3.53 µM) |
| CCOC(=O)CNC(=S)SC | 21.8 (≈ 113 µM) |
| Cc1ccc2c(C(=O)CN3CCCCC3)c(C)[nH]c2c1 | > 40.6 |
| CNC(=O)COC(=O)COc1ccc2c(C)cc(=O)oc2c1 | > 45.8 |
| Cc1c(Cl)cccc1NC(=O)CNC(=O)C1CC(=O)N(C2CCCC2)C1 (stereo unspecified) | > 56.7 |
| COc1ccc(-c2csc3nc[nH]c(=O)c23)cc1OC | 39.4 (≈ 137 µM) |
| CC(C)(C)N1CC(C(=O)Nc2ccc(C#N)cc2)CC1=O (stereo unspecified) | 40.2 (≈ 141 µM) |
| Nc1ccc(-c2cnc[nH]2)cc1[N+](=O)[O-] | > 30.6 |
| COc1ccc(OC)c(CN2CCCCCC2)c1.O=C(O)C(=O)O | 48.2 |
| Cc1csc(NC(=O)Cc2ccccc2Cl)n1 | 34.4 (≈ 129 µM) |
| O=C(O)c1ccc(Nc2nc(-c3cccnc3)cs2)cc1 | > 44.6 |
| COc1ccccc1CNC(=O)COC(=O)Cc1ccc(Br)cc1 | 13.7 (≈ 34.9 µM) |
| COc1ccc([N+](=O)[O-])cc1NC(=O)c1cccnc1 | 28.8 (≈ 105 µM) |
| CCC(C)Nc1nc(N)c([N+](=O)[O-])c(N2CCCCCC2)n1 (stereo unspecified) | 29.1 (≈ 94.4 µM) |
| COc1ccc(OC(=O)C(C)N2C(=O)c3ccccc3C2=O)cc1 (stereo unspecified) | 33.3 (≈ 102 µM) |
| COc1ccc(OC)c(NC(=O)CN2c3cccc4cccc(c34)S2(=O)=O)c1 | 2.2 (≈ 5.52 µM) |

| Structure (SMILES) | solubility kinetic [µg/mL] |
| --- | --- |
| Cn1cc(S(=O)(=O)NCCc2ccccc2)c(=O)n(C)c1=O | > 48.5 |
| COc1cc(OC)c(C(=S)N2CCCC2)cc1OC | 38.9 (≈ 138 µM) |
| Cc1ccc(S(=O)(=O)Nc2cccc3ncccc23)cc1 | 31.1 (≈ 104 µM) |
| CN(CCC(=O)Nc1ccc(Cl)cc1)Cc1ccccc1.Cl | > 50.9 |
| Cc1ccc2[nH]c3c(c2c1)CCN1C(=O)OC(C)(C)C31C (stereo unspecified) | 10.4 (≈ 36.6 µM) |
| Cc1ccccc1OCCN(C#N)c1nc(N(C)C)nc(N(C)C)n1 | 0.4 (≈ 1.17 µM) |
| CC(NC(=O)C12CC3CC(CC(C3)C1)C2)c1ccc(F)cc1 (stereo unspecified) | 1.4 (≈ 4.64 µM) |
| Cc1ccccc1-c1noc(CCC(=O)NCc2ccco2)n1 | 42.1 (≈ 135 µM) |
| O=C(NC(=O)c1ccccc1)Nc1cccc(S(=O)(=O)N2CCCCC2)c1 | 2.2 (≈ 5.68 µM) |
| O=C1Nc2ccccc2/C1=C/c1ccccc1Cl | 3.2 (≈ 12.5 µM) |
| O=C(NCCCCNC(=O)C(F)(F)F)C(F)(F)F | > 42 |
| CCC(CO)(C(=O)OC1CC2CCC(C1)N2C)c1ccccc1.Cl (stereo unspecified) | > 53.1 |
| O=S(=O)(c1ccc(Cl)cc1)N1CCN(c2ncccn2)CC1 | 0.9 (≈ 2.66 µM) |
| COc1ccc(CCNC(=O)C2CCC(=O)N2S(=O)(=O)c2ccc(C)cc2)cc1 (stereo unspecified) | 61.2 (≈ 147 µM) |
| O=C(CSc1ncccn1)Nc1ccc2c(c1)OCO2 | > 43.4 |
| CNC(=O)Cn1c(C)cc(=O)c2cccc(C)c21 | > 36.6 |
| CC(=O)Nc1ccc(OC(=O)N2CCCC2)cc1 | > 37.2 |
| CCOC(=O)NC(=O)CN1C(=O)NC2(CCc3ccccc32)C1=O (stereo unspecified) | > 49.7 |
| O=C(O)CNc1ccccc1C(=O)O | > 29.3 |
| COc1cccc(C(=O)CC(C#N)c2ccc(F)cc2)c1 (stereo unspecified) | 16 (≈ 56.5 µM) |
